Article PMC4835877, “HM71224, a novel Bruton’s tyrosine kinase inhibitor, suppresses B cell and monocyte activation and ameliorates arthritis in a mouse model: a potential drug for rheumatoid arthritis” (Arthritis Research & Therapy, 2016)

What was measured:
[1] = target: T1, BLK (Homo sapiens, UniProt P51451); assay: FRET-based Z'-Lyte kinase assay; details: read-out: Biochemical Inhibition, IC50
T1 construct: purchased ThermoFisher Scientific (contract research organization)
Source text: (§1) To determine the biochemical selectivity of HM71224, we tested more than 85 kinases using the fluorescence resonance energy transfer (FRET) method.

[2] = target: T2, BMX (Homo sapiens, UniProt P51813); assay: FRET-based Z'-Lyte kinase assay; details: read-out: Biochemical Inhibition, IC50
T2 construct: purchased ThermoFisher Scientific (contract research organization)
T2 sequence (P51813 whole entry): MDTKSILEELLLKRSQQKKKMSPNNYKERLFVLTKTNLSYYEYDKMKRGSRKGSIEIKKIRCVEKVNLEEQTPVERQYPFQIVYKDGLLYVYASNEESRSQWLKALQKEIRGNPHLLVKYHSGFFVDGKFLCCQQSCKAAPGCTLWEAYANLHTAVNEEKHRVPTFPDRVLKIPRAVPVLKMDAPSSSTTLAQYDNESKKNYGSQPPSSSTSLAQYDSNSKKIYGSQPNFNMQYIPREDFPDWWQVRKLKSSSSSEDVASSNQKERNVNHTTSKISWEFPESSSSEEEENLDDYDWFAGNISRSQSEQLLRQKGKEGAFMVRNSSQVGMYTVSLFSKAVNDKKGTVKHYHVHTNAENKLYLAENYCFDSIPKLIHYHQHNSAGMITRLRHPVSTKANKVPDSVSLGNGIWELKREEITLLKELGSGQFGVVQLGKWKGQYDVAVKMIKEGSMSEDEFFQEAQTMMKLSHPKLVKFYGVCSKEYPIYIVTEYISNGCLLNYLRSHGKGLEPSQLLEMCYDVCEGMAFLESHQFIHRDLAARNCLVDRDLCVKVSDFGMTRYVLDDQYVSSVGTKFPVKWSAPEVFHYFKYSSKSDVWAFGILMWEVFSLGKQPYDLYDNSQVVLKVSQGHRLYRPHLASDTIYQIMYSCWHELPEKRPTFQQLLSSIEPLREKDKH
Source text: as §1

[3] = target: T3, CSK (Homo sapiens, UniProt P41240); assay: FRET-based Z'-Lyte kinase assay; details: read-out: Biochemical Inhibition, IC50
T3 construct: purchased ThermoFisher Scientific (contract research organization)
Source text: as §1

[4] = target: T4, TEC (Homo sapiens, UniProt P42680); assay: FRET-based Z'-Lyte kinase assay; details: read-out: Biochemical Inhibition, IC50
T4 construct: purchased ThermoFisher Scientific (contract research organization)
T4 sequence (P42680 whole entry): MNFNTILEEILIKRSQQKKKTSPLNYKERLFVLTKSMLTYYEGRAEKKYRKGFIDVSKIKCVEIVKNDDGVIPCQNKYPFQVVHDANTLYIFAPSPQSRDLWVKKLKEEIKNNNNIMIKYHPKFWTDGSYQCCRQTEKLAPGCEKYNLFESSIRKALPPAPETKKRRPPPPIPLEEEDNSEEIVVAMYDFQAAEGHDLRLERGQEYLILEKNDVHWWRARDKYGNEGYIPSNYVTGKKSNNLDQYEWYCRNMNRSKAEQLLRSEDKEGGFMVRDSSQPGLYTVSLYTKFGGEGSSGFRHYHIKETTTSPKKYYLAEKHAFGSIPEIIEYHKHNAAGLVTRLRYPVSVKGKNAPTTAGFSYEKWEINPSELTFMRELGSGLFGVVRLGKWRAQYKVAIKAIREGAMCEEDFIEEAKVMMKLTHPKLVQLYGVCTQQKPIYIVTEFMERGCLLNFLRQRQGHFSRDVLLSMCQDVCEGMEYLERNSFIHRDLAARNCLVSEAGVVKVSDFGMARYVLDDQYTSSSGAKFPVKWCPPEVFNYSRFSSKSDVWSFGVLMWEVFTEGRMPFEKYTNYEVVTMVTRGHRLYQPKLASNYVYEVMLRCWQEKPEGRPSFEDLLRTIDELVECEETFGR
Source text: as §1

[5] = target: T5, TXK (Homo sapiens, UniProt P42681); assay: FRET-based Z'-Lyte kinase assay; details: read-out: Biochemical Inhibition, IC50
T5 construct: purchased ThermoFisher Scientific (contract research organization)
T5 sequence (P42681 whole entry): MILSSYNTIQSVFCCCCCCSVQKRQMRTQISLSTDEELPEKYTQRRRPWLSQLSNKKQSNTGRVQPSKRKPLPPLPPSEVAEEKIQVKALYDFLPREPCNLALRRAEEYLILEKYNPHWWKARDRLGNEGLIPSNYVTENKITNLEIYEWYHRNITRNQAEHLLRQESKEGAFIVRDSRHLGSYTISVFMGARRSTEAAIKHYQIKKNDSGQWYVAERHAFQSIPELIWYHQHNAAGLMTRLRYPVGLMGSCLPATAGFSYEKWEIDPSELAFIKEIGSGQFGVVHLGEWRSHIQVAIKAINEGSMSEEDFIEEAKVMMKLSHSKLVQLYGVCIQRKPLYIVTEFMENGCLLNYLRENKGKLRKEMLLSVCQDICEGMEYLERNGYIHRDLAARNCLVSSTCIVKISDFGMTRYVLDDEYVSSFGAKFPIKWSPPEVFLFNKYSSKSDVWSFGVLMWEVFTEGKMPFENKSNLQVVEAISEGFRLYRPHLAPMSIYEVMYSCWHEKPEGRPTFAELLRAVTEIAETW
Source text: as §1

[6] = target: T6, YES (Homo sapiens, UniProt P07947); assay: FRET-based Z'-Lyte kinase assay; details: read-out: Biochemical Inhibition, IC50
T6 construct: purchased ThermoFisher Scientific (contract research organization)
T6 sequence (P07947 whole entry): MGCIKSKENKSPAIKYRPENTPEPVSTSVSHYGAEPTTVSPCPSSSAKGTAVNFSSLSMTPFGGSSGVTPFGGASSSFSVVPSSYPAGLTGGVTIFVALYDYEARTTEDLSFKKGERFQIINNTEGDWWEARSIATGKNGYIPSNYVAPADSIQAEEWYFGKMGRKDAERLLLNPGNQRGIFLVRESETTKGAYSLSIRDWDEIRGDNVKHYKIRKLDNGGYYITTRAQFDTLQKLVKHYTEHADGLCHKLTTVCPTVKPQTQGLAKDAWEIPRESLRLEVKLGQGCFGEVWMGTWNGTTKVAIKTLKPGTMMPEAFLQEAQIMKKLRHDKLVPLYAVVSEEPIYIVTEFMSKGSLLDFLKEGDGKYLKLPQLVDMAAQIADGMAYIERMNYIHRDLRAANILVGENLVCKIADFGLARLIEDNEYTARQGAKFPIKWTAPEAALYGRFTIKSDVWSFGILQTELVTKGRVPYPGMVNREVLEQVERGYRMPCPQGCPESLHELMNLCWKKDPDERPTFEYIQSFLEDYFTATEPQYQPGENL
Source text: as §1

[7] = system: human CD14+ monocytes; assay: Osteoclast formation from human CD14+ cells (TRAP staining); assay type: cell-based; details: Monocyte, 1000 nM
Protocol: Isolated human CD14 cells (1 × 10^5 cells per well) were cultured in a 96-well plate at 37 °C in alpha-minimum essential medium (MEM) supplemented with 10 % FBS and 25 ng/mL M-CSF (Sigma-Aldrich) in the presence of increasing concentrations of HM71224. RANKL (100 ng/mL, Sigma-Aldrich) was added after 3 days. The medium was replaced every 3 days. On day 9, cells were fixed with 3 % formaldehyde and stained for tartrate-resistant acid phosphatase (TRAP) expression (Sigma-Aldrich). To drive osteoclast formation from bone morrow cells, BMMs (4 × 10^4 per well) were stimulated with 30 ng/mL M-CSF and 100 ng/mL RANKL in the presence of increasing concentrations of HM71224 for 4 days. TRAP+ cells with three or more nuclei were counted as osteoclasts.

[8] = system: murine bone marrow-derived macrophages; assay: Osteoclast formation from murine BMMs (TRAP staining); assay type: cell-based, mouse; details: M-CSF and RANKL, 4 days
[9] = system: DBA/1 J mice with collagen-induced arthritis; assay: Collagen-induced arthritis (CIA) model; assay type: in vivo, mouse
Protocol: All animal experimental protocols were approved by the animal care and use committee of the Hanmi Research Center, and performed in accordance with approved guidelines. Male DBA/1 J mice (9 weeks old; n = 7 per group) were immunized with an emulsion of Complete Freund’s Adjuvant and bovine type II collagen (CII) (total volume, 0.07 mL) via intradermal injection at the base of the tail (day 0). Three weeks later, the mice received a booster immunization comprising bovine CII emulsified in Incomplete Freund’s Adjuvant. […] The arthritis score and body weight were measured three times per week for 2 weeks after administration of the drugs (Additional file 1: Figure S1). The arthritis score was determined by grading each paw from 0 to 4 based on erythema, swelling, and flexion of the joint and was expressed as the sum of the scores of all four paws. Serum levels of IL-6 were measured by Luminex analysis in a bead-based immunoassay (EMD Millipore Corporation). Serum levels of anti-CII and total IgG were measured by ELISA (Chondrex, Seattle, WA, USA; Bethyl Laboratories, Montgomery, TX, USA).
Micro-CT of the hind limbs was performed using a Siemens Inveon Micro-CT/PET scanner (Siemens Medical Solutions, Knoxville, TN, USA).
The hind legs of each mouse were fixed with 10 % formalin, decalcified in 5 % formic acid, and embedded in paraffin. Sections were then cut and stained with hematoxylin and eosin (H&E). The bone erosion index was scored from 0 to 4 according to the following criteria: 0 = no erosion, 1 = mild (focal subchondral erosion), 2 = moderate (multiple subchondral erosions), 3 = high (as above and focal erosion of talus), and 4 = maximum (multiple erosions of tarsal and metatarsal bones).
Figure S1. Experiment design of collagen induced arthritis. Untreated DBA/1J mice (n=7) served as healthy controls (Ctrl). DBA/1J mice (n= 56) were immunized Day 0 and day 21. On day 10 after boosting (i.e. day 31), the induction of CIA was evaluated. […] Immunized mice (n=42) were divided into 6 groups (n=7 in each group). […] CIA, collagen induced arthritis.

[10] = target: JAK3 (Homo sapiens, UniProt P52333); assay: biochemical
Chain of JAK3 (P52333 whole entry): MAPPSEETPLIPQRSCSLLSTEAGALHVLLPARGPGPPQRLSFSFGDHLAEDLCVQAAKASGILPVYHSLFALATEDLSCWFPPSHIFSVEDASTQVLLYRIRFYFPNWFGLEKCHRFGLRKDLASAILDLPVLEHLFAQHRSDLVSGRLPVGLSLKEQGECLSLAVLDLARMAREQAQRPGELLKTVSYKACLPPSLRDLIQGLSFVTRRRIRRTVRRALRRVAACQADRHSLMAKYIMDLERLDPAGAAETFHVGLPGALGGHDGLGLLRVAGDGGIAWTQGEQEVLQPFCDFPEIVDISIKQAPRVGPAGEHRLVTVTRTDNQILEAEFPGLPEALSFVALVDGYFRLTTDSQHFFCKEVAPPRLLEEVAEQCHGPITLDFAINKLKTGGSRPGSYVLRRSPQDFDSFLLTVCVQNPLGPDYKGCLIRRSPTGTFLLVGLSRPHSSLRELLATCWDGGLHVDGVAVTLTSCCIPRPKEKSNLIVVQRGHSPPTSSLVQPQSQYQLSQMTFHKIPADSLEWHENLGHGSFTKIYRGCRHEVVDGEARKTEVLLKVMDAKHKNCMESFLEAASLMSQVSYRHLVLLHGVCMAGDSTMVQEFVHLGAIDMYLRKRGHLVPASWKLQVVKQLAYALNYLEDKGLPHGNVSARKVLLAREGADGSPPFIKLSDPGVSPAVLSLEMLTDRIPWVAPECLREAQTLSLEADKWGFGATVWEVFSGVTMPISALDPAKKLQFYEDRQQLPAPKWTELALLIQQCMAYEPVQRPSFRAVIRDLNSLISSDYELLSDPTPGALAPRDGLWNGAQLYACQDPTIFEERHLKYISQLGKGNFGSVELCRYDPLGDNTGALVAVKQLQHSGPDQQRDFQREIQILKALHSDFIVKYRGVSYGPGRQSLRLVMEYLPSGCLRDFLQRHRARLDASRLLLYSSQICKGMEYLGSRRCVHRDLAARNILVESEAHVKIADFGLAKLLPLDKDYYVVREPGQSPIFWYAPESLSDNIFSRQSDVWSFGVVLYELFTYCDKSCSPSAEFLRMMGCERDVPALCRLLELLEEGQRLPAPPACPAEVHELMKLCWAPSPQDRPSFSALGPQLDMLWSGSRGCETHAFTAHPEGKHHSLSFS

[11] = target: BTK (Homo sapiens, UniProt Q06187); assay: Kinome Binding Tree Spot analysis, Scan Max (DiscoveRx); design: purchased DiscoveRx (Scan Max panel); details: concentration of 2 μM
Chain of BTK (Q06187 whole entry): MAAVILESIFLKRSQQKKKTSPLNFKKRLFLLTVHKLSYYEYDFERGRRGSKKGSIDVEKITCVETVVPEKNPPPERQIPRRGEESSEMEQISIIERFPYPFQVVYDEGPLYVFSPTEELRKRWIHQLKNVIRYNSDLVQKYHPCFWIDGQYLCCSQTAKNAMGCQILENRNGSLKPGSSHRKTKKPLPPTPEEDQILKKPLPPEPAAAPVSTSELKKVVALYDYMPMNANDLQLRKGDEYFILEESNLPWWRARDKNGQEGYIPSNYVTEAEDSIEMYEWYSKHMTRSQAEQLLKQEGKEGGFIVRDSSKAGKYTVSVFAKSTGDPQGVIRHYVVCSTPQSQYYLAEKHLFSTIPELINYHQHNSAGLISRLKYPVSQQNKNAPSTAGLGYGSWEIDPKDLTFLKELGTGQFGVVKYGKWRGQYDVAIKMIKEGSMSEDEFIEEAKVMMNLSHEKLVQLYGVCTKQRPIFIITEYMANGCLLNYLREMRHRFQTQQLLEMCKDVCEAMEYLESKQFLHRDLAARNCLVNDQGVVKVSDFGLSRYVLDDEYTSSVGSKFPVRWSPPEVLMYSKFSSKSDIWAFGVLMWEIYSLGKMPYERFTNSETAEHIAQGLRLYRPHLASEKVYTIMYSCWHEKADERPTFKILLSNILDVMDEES

T1 sequence (P51451 whole entry): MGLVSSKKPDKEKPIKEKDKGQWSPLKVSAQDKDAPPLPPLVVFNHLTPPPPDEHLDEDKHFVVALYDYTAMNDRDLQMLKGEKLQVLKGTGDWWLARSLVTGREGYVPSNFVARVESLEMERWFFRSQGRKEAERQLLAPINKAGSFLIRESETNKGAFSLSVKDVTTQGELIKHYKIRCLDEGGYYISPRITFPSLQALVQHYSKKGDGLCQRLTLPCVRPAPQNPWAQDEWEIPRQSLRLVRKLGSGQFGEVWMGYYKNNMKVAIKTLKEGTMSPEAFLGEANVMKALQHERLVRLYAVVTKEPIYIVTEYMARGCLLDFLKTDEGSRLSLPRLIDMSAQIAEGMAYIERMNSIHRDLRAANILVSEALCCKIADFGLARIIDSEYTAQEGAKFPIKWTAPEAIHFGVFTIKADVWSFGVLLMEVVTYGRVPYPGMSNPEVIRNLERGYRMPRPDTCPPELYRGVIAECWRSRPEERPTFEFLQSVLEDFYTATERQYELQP

IC50 [1]: 0.0135 µM
IC50 [2]: 0.00064 µM
IC50 [3]: > 1 µM
IC50 [4]: 0.00457 µM
IC50 [5]: 0.00462 µM
IC50 [6]: 0.562 µM
IC50 [10]: 0.0146 µM
Kinome binding selectivity [11]: selectively bound to Btk
SMILES: C=CC(=O)Nc1cccc(Oc2nc(Nc3ccc(N4CCN(C)CC4)cc3)nc3ccoc23)c1 [HM71224]
inhibition at 1 µM [7]: ~50%
Osteoclast formation from murine BMMs [8]: inhibited osteoclast formation from murine BMMs
Levels of circulating anti-collagen antibodies vs untreated group ([9]; CIA mice): significantly lower
Serum IL-6 levels vs untreated group ([9]; CIA mice): significantly lower
Total IgG level ([9]; CIA mice): tended to be lower
Erosive bone changes and bone loss ([9]; CIA mice, H&E section): markedly reduced erosive bone changes and prevented bone loss
Weight loss ([9]; dose of 3 mg/kg or higher): prevented weight loss
AS, arthritis score ([9]; oral 1mg/kg once a day, D0): 1.1±0.7
Wt, weight ([9]; oral 1mg/kg once a day, D0): 22.7±0.5 gram
AS, arthritis score ([9]; oral 1mg/kg once a day, D1): 1.1±0.7
Wt, weight ([9]; oral 1mg/kg once a day, D1): 22.5±0.5 gram
AS, arthritis score ([9]; oral 1mg/kg once a day, D4): 1.9±0.9
Wt, weight ([9]; oral 1mg/kg once a day, D4): 22.2±0.6 gram
AS, arthritis score ([9]; oral 1mg/kg once a day, D6): 2.1±1.1
Wt, weight ([9]; oral 1mg/kg once a day, D6): 21.9±0.5 gram
AS, arthritis score ([9]; oral 1mg/kg once a day, D8): 2.9±1.1
Wt, weight ([9]; oral 1mg/kg once a day, D8): 22.1±0.5 gram
AS, arthritis score ([9]; oral 1mg/kg once a day, D12): 5.0±1.0
Wt, weight ([9]; oral 1mg/kg once a day, D12): 21.6±0.5 gram
AS, arthritis score ([9]; oral 1mg/kg once a day, D13): 6.6±0.7
Wt, weight ([9]; oral 1mg/kg once a day, D13): 21.4±0.4 gram
AS, arthritis score ([9]; oral 1mg/kg once a day, D15): 6.6±0.9
Wt, weight ([9]; oral 1mg/kg once a day, D15): 21.2±0.3 gram
AS, arthritis score ([9]; oral 3mg/kg once a day, D0): 1.1±0.3
Wt, weight ([9]; oral 3mg/kg once a day, D0): 22.7±0.4 gram
AS, arthritis score ([9]; oral 3mg/kg once a day, D1): 1.3±0.7
Wt, weight ([9]; oral 3mg/kg once a day, D1): 22.3±0.5 gram
AS, arthritis score ([9]; oral 3mg/kg once a day, D4): 1.9±0.6
Wt, weight ([9]; oral 3mg/kg once a day, D4): 22.2±0.4 gram
AS, arthritis score ([9]; oral 3mg/kg once a day, D6): 1.9±0.6
Wt, weight ([9]; oral 3mg/kg once a day, D6): 22.4±0.4 gram
AS, arthritis score ([9]; oral 3mg/kg once a day, D8): 2.0±0.7
Wt, weight ([9]; oral 3mg/kg once a day, D8): 22.5±0.4 gram
AS, arthritis score ([9]; oral 3mg/kg once a day, D12): 3.1±0.9
Wt, weight ([9]; oral 3mg/kg once a day, D12): 22.6±0.4 gram
AS, arthritis score ([9]; oral 3mg/kg once a day, D13): 3.4±1.2
Wt, weight ([9]; oral 3mg/kg once a day, D13): 22.6±0.4 gram
AS, arthritis score ([9]; oral 3mg/kg once a day, D15): 3.4±1.4
Wt, weight ([9]; oral 3mg/kg once a day, D15): 22.5±0.4 gram
AS, arthritis score ([9]; oral 10mg/kg once a day, D0): 1.1±0.6
Wt, weight ([9]; oral 10mg/kg once a day, D0): 23.0±0.2 gram
AS, arthritis score ([9]; oral 10mg/kg once a day, D1): 0.9±0.3
Wt, weight ([9]; oral 10mg/kg once a day, D1): 22.8±0.3 gram
AS, arthritis score ([9]; oral 10mg/kg once a day, D4): 0.4±0.2
Wt, weight ([9]; oral 10mg/kg once a day, D4): 23.2±0.3 gram
AS, arthritis score ([9]; oral 10mg/kg once a day, D6): 0.6±0.4
Wt, weight ([9]; oral 10mg/kg once a day, D6): 23.0±0.3 gram
AS, arthritis score ([9]; oral 10mg/kg once a day, D8): 0.6±0.3
Wt, weight ([9]; oral 10mg/kg once a day, D8): 23.2±0.3 gram
AS, arthritis score ([9]; oral 10mg/kg once a day, D12): 1.0±0.4
Wt, weight ([9]; oral 10mg/kg once a day, D12): 23.5±0.3 gram
AS, arthritis score ([9]; oral 10mg/kg once a day, D13): 0.7±0.4
Wt, weight ([9]; oral 10mg/kg once a day, D13): 23.8±0.3 gram
AS, arthritis score ([9]; oral 10mg/kg once a day, D15): 0.7±0.4
Wt, weight ([9]; oral 10mg/kg once a day, D15): 23.9±0.3 gram
AS, arthritis score ([9]; oral 30mg/kg once a day, D0): 1.1±0.5
Wt, weight ([9]; oral 30mg/kg once a day, D0): 22.6±0.5 gram
AS, arthritis score ([9]; oral 30mg/kg once a day, D1): 0.9±0.3
Wt, weight ([9]; oral 30mg/kg once a day, D1): 22.0±0.5 gram
AS, arthritis score ([9]; oral 30mg/kg once a day, D4): 0.3±0.2
Wt, weight ([9]; oral 30mg/kg once a day, D4): 22.1±0.4 gram
AS, arthritis score ([9]; oral 30mg/kg once a day, D6): 0.3±0.2
Wt, weight ([9]; oral 30mg/kg once a day, D6): 22.1±0.4 gram
AS, arthritis score ([9]; oral 30mg/kg once a day, D8): 0.4±0.2
Wt, weight ([9]; oral 30mg/kg once a day, D8): 22.4±0.4 gram
AS, arthritis score ([9]; oral 30mg/kg once a day, D12): 0.4±0.2
Wt, weight ([9]; oral 30mg/kg once a day, D12): 22.5±0.4 gram
AS, arthritis score ([9]; oral 30mg/kg once a day, D13): 0.4±0.3
Wt, weight ([9]; oral 30mg/kg once a day, D13): 22.9±0.5 gram
AS, arthritis score ([9]; oral 30mg/kg once a day, D15): 0.3±0.2
Wt, weight ([9]; oral 30mg/kg once a day, D15): 22.8±0.4 gram
Arthritis score vs untreated CIA mice ([9]; oral once a day for 2 weeks, P < 0.05 at 10 mg/kg, P < 0.01 at 30 mg/kg): lower arthritis scores than untreated CIA mice
